Literature values as cited in patent publication US20070178099A1, “Suppression of TNFalpha and IL-12 in therapy” (The Kennedy Institute of Rheumatology, priority 1996, published 2007).
Like-named read-outs stand apart in the source and are kept apart here.

Legend:
Crohn's disease = settings: open-label trial

Substance: cA2: chimeric anti-TNF antibody: variable region of mouse anti-human TNF IgG1 antibody A2 and constant regions of human IgG1, kappa immunoglobulin
- clinical effect in rheumatoid arthritis (rheumatoid arthritis; open-label trials): suppression of inflammation and with successful retreatment after relapse
- clinical effect in rheumatoid arthritis (rheumatoid arthritis; randomized, double-blind, placebo-controlled trial): suppression of inflammation
- clinical effect in Crohn's disease (Crohn's disease): Beneficial effects
